# pEC50: −log10 of the molar value.
# Target: T1, recombinant human pancreatic GLK (Homo sapiens, UniProt P35557)
# T1 sequence (P35557 1-465): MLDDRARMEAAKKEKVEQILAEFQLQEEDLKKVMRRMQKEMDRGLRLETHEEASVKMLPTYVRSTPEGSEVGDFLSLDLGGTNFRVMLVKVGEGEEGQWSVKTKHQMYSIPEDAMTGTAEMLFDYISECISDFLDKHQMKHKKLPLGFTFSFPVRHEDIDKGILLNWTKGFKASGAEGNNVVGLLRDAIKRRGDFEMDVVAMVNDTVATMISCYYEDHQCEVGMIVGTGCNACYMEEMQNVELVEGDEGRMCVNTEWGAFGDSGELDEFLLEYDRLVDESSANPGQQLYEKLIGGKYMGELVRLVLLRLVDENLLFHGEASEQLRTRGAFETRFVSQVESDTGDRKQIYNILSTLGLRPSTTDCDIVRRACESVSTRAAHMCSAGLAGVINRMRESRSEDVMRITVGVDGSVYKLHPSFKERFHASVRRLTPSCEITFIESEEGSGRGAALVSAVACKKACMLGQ
# Experiment: biochemical
row,Compound,pEC50
1,"COCCC(Sc1ncnc2c1cnn2-c1ccccc1Cl)C(=O)Nc1nc(C)cs1 (stereo not drawn) [Example 53, 2-{[1-(2-chlorophenyl)-1H-pyrazolo[3,4-d]pyrimidin-4-yl]thio}-4-methoxy-N-(4-methyl-1,3-thiazol-2-yl)butanamide]",6.11
2,"Cc1nnc(NC(=O)C(COC(C)C)Oc2ncnc3c2cnn3-c2ccccc2Cl)s1 (stereo not drawn) [Example 109, 2-[1-(2-chlorophenyl)pyrazolo[4,5-e]pyrimidin-4-yl]oxy-3-isopropoxy-N-(5-methyl-1,3,4-thiadiazol-2-yl)propanamide]",5.49
3,"Cc1c(Cl)cccc1-n1ncc2c(O[C@@H](COCCO)C(=O)Nc3ccc(Cl)cn3)ncnc21 [Example 173, (2S)-2-[1-(3-chloro-2-methylphenyl)pyrazolo[4,5-e]pyrimidin-4-yl]oxy-N-(5-chloropyridin-2-yl)-3-(2-hydroxyethoxy)propanamide]",6.04
4,"CC[C@@H](Oc1ncnc2c1cnn2-c1ccccc1OC)C(=O)Nc1ccc(C)cn1 [Example 43, (2R)-2-{[1-(2-Methoxyphenyl)-1H-pyrazolo[3,4-d]pyrimidin-4-yl]oxy}-N-(5-methylpyridin-2-yl)butanamide]",5.38
5,"CNC(=O)CCC(Oc1ncnc2c1cnn2-c1ccccc1Cl)C(=O)Nc1ccc(C)cn1 (stereo not drawn) [Example 51, 2-{[1-(2-chlorophenyl)-1H-pyrazolo[3,4-d]pyrimidin-4-yl]oxy}-N5-methyl-N1-(5-methylpyridin-2-yl)pentanediamide]",5.36
6,"Cc1ccc(NC(=O)[C@H](COC(C)C)Oc2ncnc3c2cnn3-c2ccncc2C)nc1 [Example 135, (2S)—N-(5-methylpyridin-2-yl)-2-[1-(3-methylpyridin-4-yl)pyrazolo[4,5-e]pyrimidin-4-yl]oxy-3-propan-2-yloxypropanamide]",5.23
7,"O=C(Nc1ccc(F)cn1)[C@H](COCCO)Oc1ncnc2c1cnn2-c1ccccc1Cl [Example 248, (2S)-2-[1-(2-chlorophenyl)pyrazolo[3,4-d]pyrimidin-4-yl]oxy-N-(5-fluoro-2-pyridyl)-3-(2-hydroxyethoxy)propanamide]",6.19
8,"CCOC[C@H](Oc1ncnc2c1cnn2-c1ccccc1C(F)(F)F)C(=O)Nc1ccc(C#N)cn1 [Example 132, (2S)—N-(5-cyanopyridin-2-yl)-3-ethoxy-2-[1-[2-(trifluoromethyl)phenyl]pyrazolo[4,5-e]pyrimidin-4-yl]oxypropanamide]",6.33
9,"Cc1ccc(NC(=O)[C@H](COCCO)Oc2ncnc3c2cnn3-c2cccc(C#N)c2C)nc1 [Example 208, (2S)-2-(1-(3-cyano-2-methylphenyl)-1H-pyrazolo[3,4-d]pyrimidin-4-yloxy)-3-(2-hydroxyethoxy)-N-(5-methylpyridin-2-yl)propanamide]",5.55
10,"CCOC[C@H](Oc1ncnc2c1nnn2-c1ccccc1Cl)C(=O)Nc1ccc(C#N)cn1 [Example 197, (2S)-2-(3-(2-chlorophenyl)-3H-[1,2,3]triazolo[4,5-d]pyrimidin-7-yloxy)-N-(5-cyanopyridin-2-yl)-3-ethoxypropanamide]",6.22
11,"COC[C@@H](C)OC[C@H](Oc1ncnc2c1cnn2-c1ncccc1Cl)C(=O)Nc1ccc(C)cn1 [Example 154, (2S)-2-(1-(3-chloropyridin-2-yl)-1H-pyrazolo[3,4-d]pyrimidin-4-yloxy)-3-((R)-1-methoxypropan-2-yloxy)-N-(5-methylpyridin-2-yl)propanamide]",5.92
12,"N#Cc1ccc(NC(=O)[C@H](CCCO)Oc2ncnc3c2cnn3-c2ncccc2Cl)nc1 [Example 213, (2S)-2-(1-(3-chloropyridin-2-yl)-1H-pyrazolo[3,4-d]pyrimidin-4-yloxy)-N-(5-cyanopyridin-2-yl)-5-hydroxypentanamide]",5.96
13,"Cc1ccc(NC(=O)[C@@H](COC(C)C)Oc2ncnc3c2cnn3-c2ccccc2Cl)nc1 [Example 99, (2R)-2-(1-(2-chlorophenyl)-1H-pyrazolo[3,4-d]pyrimidin-4-yloxy)-3-isopropoxy-N-(5-methylpyridin-2-yl)propanamide]",5.03
14,"COC[C@H](Oc1ncnc2c1cnn2-c1ccccc1Cl)C(=O)Nc1ccc(C)cn1 [Example 3, (S)-2-{[1-(2-chlorophenyl)-1H-pyrazolo[3,4-d]pyrimidin-4-yl]oxy}-3-methoxy-N-(5-methylpyridin-2-yl)propanamide]",6.77
15,"COCC[C@H](Oc1ncnc2c1cnn2-c1ccccc1C)C(=O)Nc1ccc(C)cn1 [Example 17, (S)-4-methoxy-2-{[1-(2-methylphenyl)-1H-pyrazolo[3,4-d]pyrimidin-4-yl]oxy}-N-(5-methylpyridin-2-yl)butanamide]",7.19
16,"CCCCC(Sc1ncnc2c1cnn2-c1ccccc1Cl)C(=O)Nc1nc(C)cs1 (stereo not drawn) [Example 59, 2-{[1-(2-chlorophenyl)-1h-pyrazolo[3,4-]pyrimidin-4-yl]thio}-n-(4-methyl-1,3-thiazol-2-yl)hexanamide]",6.19
17,"CCOC[C@H](Oc1ncnc2c1cnn2-c1ncccc1Cl)C(=O)Nc1ccncn1 [Example 127f, (2S)-2-[1-(3-chloro-2-pyridyl)pyrazolo[4,5-e]pyrimidin-4-yl]oxy-3-ethoxy-N-pyrimidin-4-yl-propanamide]",5.96
18,"N#Cc1ccc(NC(=O)[C@H](COCCO)Oc2ncnc3c2cnn3-c2ccccc2Cl)nc1 [Example 172, (2S)-2-[1-(2-chlorophenyl)pyrazolo[4,5-e]pyrimidin-4-yl]oxy-N-(5-cyanopyridin-2-yl)-3-(2-hydroxyethoxy)propanamide]",6.09
19,"CCCCCCC(Sc1ncnc2c1cnn2-c1ccccc1Cl)C(=O)Nc1nc(C)cs1 (stereo not drawn) [Example 63, 2-{[1-(2-chlorophenyl)-1H-pyrazolo[3,4-d]pyrimidin-4-yl]thio}-N-(4-methyl-1,3-thiazol-2-yl)octanamide]",< 5.35
20,"CCCCC(Oc1ncnc2c1cnn2-c1ccccc1Cl)C(=O)Nc1cnc(C)cn1 (stereo not drawn) [Example 40, 2-{[1-(2-chlorophenyl)-1H-pyrazolo[3,4-d]pyrimidin-4-yl]oxy}-N-(5-methylpyrazin-2-yl)hexanamide]",6.85
21,"CC(C)OCC(Oc1ncnc2c1cnn2-c1ccccc1Cl)C(=O)Nc1nncs1 (stereo not drawn) [Example 117, 2-[1-(2-chlorophenyl)pyrazolo[4,5-e]pyrimidin-4-yl]oxy-3-isopropoxy-N-(1,3,4-thiadiazol-2-yl)propanamide]",5.17
22,"Cc1ccc(NC(=O)[C@H](COC(C)C)Oc2ncnc3c2cnn3-c2nccn2C)nc1 [Example 211, (2S)-3-isopropoxy-2-(1-(1-methyl-1H-imidazol-2-yl)-1H-pyrazolo[3,4-d]pyrimidin-4-yloxy)-N-(5-methylpyridin-2-yl)propanamide]",5.96
23,"COC[C@H](Oc1ncnc2c1cnn2-c1ccccc1C#N)C(=O)Nc1ccc(C)cn1 [Example 97, (2S)-2-(1-(2-cyanophenyl)-1H-pyrazolo[3,4-d]pyrimidin-4-yloxy)-3-methoxy-N-(5-methylpyridin-2-yl)propanamide]",5.92
24,"CC(C)OCC(Oc1ncnc2c1cnn2-c1ccccc1Cl)C(=O)Nc1ccc(C#N)cn1 (stereo not drawn) [Example 113, 2-[1-(2-chlorophenyl)pyrazolo[4,5-e]pyrimidin-4-yl]oxy-N-(5-cyano-2-pyridyl)-3-isopropoxy-propanamide]",6.52
